The values that follow come from patent US7341857B2, “Production of beta-hydroxypalmitate methyl esterase from Ideonella sp.0-0013 (FERM BP-08660)” (Incorporated Administrative Agency National Agriculture and …, priority 2003, dated 2008).

For assay [1], the system named is esterase derived from Ideonella sp. 0-0013 strain. The experiment in a line: Decomposing activities of methyl palmitate or methyl 3-hydroxypalmitate (Test Example 2, substrate selectivity). Format: biochemical. Conditions: for Decomposition: 0.5 mg of substrate; for Activity ratio: methyl 3-hydroxypalmitate = 100.0. The protocol: The culture broth obtained by cultivating the strain in the same manner as that in Example 1 was centrifuged to obtain a supernatant and microbial cells. The supernatant or the microbial cells were suspended in 200 μL of 10 mM potassium phosphate buffer (pH 7.0) containing 0.5 mg of methyl 3-hydroxypalmitate, and the resultant was allowed to react at 43° C. for 12 hours.
After completion of the reaction, 500 μL of dichloromethane was added to the reaction mixture to extract 3-hydroxypalmitic acid. The extract was subjected to gas chromatography (Stabilwax-DA, 30 m×0.53 mm×0.25 μm) to measure the decomposing activity of methyl 3-hydroxypalmitate.
0.5 mg of methyl palmitate or methyl 3-hydroxypalmitate was reacted and analyzed in the same manner as that in Example 1 and the decomposing activities of the compounds were measured in each case.

Assay [2] has the same test system. The experiment in a line: Inhibition, activation and stabilization of the esterase. Type of assay: biochemical. The protocol:
Methyl 3-hydroxypalmitate is detected by gas chromatography with a column of Stabilwax-DA, 30 m×0.53 mm×0.25 μm. The 3-hydroxypalmitic acid generated by hydrolysis of the ester can be detected by the same gas chromatography as described above. • (2) Optimal temperature for functioning: The optimal temperature of the enzyme of the present invention is 37° C. • (3) Optimal pH and stable pH range: pH 7 or more to pH 10 or less. • (4) Temperature stability: 97% of the enzyme is stable at 43° C., 54% of the enzyme is stable at 50° C., and 38% of the enzyme is stable at 60° C. • (5) Inhibition, activation, and stabilization: Activated by sodium ion and potassium ion, and inhibited by strontium ion, iron ion (divalent), and methyl palmitate. • (6) Molecular weight: About 46,500 Da (by SDS-PAGE), about 41,000 Da (by a gel filtration method). • (7) Isoelectric point: pI 4 (by polyacrylamide gel isoelectric focusing method).

For the compound `CCCCCCCCCCCCCC(O)CC(=O)OC` (stereo not shown) [Methyl 3-hydroxypalmitate, methyl 3-hydroxypalmitate], in assay [1], the “hydrolytic activity relative to that for methyl palmitate” value is “about 5 times”, the Decomposition was found to be 50.3% and the Activity ratio worked out at 100.0.

Take `CCCCCCCCCCCCCCCC(=O)OC` [Methyl palmitate, methyl palmitate]: in assay [1], the Decomposition amounted to 10.3% and the Activity ratio is listed as 20.5. In addition, the “Inhibition, activation, and stabilization (effect on the esterase)” value (shortened to “Inhibition, activation”) in assay [2] is reported as “inhibited”.

With `[Fe+2]` [iron ion (divalent)], the “Inhibition, activation” value in assay [2] is on record as “inhibited”.

Take `[K+]` [potassium ion]: the “Inhibition, activation” value in assay [2] is “Activated”.

`[Na+]` [sodium ion]: in assay [2], the “Inhibition, activation” value is reported as “Activated”.

On to `[Sr+2]` [strontium ion], for which, in assay [2], the “Inhibition, activation” value was “inhibited”.
